Results taken from patent US9580435B2, “Pyrrolo[2,3-D]pyrimidine derivatives as CB2 receptor agonists” (priority 2013, dated 2017).
pEC50: −log10 of the molar value. Like-named read-outs stand apart in the source and are kept apart here.

Legend:
human CB2 receptors = target: T1, human CB2 receptors (Homo sapiens, UniProt P34972); test: functional cAMP assay, CHO cells expressing human CB2 receptors; format: cell-based
T1 construct: expressed in transfected cells; host or cells: CHO cells
Procedure: (§1) CHO cells expressing human CB1 or CB2 receptors are seeded 17-24 hours prior to the experiment 50.000 cells per well in a black 96 well plate with flat clear bottom (Corning Costar #3904) in DMEM (Invitrogen No. 31331), lx HT supplement, with 10% fetal calf serum and incubated at 5% CO2 and 37° C. in a humidified incubator. The growth medium was exchanged with Krebs Ringer Bicarbonate buffer with 1 mM IBMX and incubated at 30° C. for 30 min. Compounds were added to a final assay volume of 100 μl and incubated for 30 min at 30° C. Using the cAMP-Nano-TRF detection kit the assay (Roche Diagnostics) was stopped by the addition of 50 μl lysis reagent (Tris, NaCl, 1.5% Triton X100, 2.5% NP40, 10% NaN3) and 50 μl detection solutions (20 μM mAb Alexa700-cAMP 1:1, and 48 μM Ruthenium-2-AHA-cAMP) and shaken for 2 h at room temperature. The time-resolved energy transfer is measured by a TRF reader (Evotec Technologies GmbH), equipped with a ND:YAG laser as excitation source. The plate is measured twice with the excitation at 355 nm and at the emission with a delay of 100 ns and a gate of 100 ns, total exposure time 10 s at 730 (bandwidth 30 nm) or 645 nm (bandwidth 75 nm), respectively. The FRET signal is calculated as follows: FRET=T730-Alexa730-P(T645-B645) with P=Ru730-B730/Ru645-B645, where T730 is the test well measured at 730 nM, T645 is the test well measured at 645 nm, B730 and B645 are the buffer controls at 730 nm and 645 nm, respectively. cAMP content is determined from the function of a standard curve spanning from 10 μM to 0.13 nM cAMP.
(§2) EC50 values were determined using Activity Base analysis (ID Business Solution, Limited). The EC50 values for a wide range of cannabinoid agonists generated from this assay were in agreement with the values published in the scientific literature.

human CB1 receptors = target: T2, human CB1 receptors (Homo sapiens, UniProt P21554); test: functional cAMP assay, CHO cells expressing human CB1 receptors; format: cell-based
T2 construct: expressed in transfected cells; host or cells: CHO cells
Procedure: as §1, §2

[1] = human EC50, functional cAMP assay, CHO cells expressing human CB2, read-out: EC50:CB2

T2 sequence (P21554 whole entry): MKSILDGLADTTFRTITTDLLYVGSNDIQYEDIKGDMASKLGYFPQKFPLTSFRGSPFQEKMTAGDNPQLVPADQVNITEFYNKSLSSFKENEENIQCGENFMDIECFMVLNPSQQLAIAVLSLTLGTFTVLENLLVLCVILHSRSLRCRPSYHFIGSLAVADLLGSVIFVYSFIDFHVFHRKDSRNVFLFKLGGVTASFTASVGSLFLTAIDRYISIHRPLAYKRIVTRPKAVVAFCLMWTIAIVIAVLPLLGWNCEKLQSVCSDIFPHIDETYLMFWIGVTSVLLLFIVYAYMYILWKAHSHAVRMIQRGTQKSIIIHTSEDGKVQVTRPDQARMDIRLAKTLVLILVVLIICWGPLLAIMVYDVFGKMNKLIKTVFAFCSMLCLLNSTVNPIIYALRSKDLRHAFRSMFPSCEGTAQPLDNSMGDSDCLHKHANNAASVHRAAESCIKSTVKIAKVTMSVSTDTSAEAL
T1 sequence (P34972 whole entry): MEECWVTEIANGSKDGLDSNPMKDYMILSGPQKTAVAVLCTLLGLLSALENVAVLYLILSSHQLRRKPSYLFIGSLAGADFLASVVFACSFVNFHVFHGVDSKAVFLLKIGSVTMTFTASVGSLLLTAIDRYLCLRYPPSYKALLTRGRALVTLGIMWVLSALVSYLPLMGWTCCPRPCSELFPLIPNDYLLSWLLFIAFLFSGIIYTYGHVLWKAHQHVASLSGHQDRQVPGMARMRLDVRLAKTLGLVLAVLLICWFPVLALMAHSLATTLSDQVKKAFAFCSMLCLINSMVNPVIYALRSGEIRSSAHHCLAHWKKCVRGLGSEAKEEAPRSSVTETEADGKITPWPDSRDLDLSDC

| SMILES | pEC50 (human CB2 receptors) | pEC50 (human CB1 receptors) | pEC50 (human CB2 receptors; [1]) |
| --- | --- | --- | --- |
| CC(C)(C)c1nc(N2CCC(F)(F)C2)c2ccn(Cc3ccccc3Cl)c2n1 [Example 1, 2-tert-butyl-7-[(2-chlorophenyl)methyl]-4-(3,3-difluoropyrrolidin-1-yl)pyrrolo[2,3-d]pyrimidine] | 8.00 | < 5.00 | – |
| CC(C)(C)c1nc(N2CCC(F)(F)C2)c2ccn(Cc3ccc(F)cc3Cl)c2n1 [Example 2, 2-tert-butyl-7-[(2-chloro-4-fluorophenyl)methyl]-4-(3,3-difluoropyrrolidin-1-yl)pyrrolo[2,3-d]pyrimidine] | 7.58 | < 5.00 | – |
| CC(C)(C)c1nc(N2CCC(F)(F)C2)c2ccn(Cc3ccccc3S(C)(=O)=O)c2n1 [Example 3, 2-tert-butyl-4-(3,3-difluoropyrrolidin-1-yl)-7-[(2-methylsulfonylphenyl)methyl]pyrrolo[2,3-d]pyrimidine] | 7.94 | < 5.00 | – |
| CC(C)(C)c1nc(N2CCC(F)(F)C2)c2ccn(Cc3ccccc3C(F)(F)F)c2n1 [Example 4, 2-tert-butyl-4-(3,3-difluoropyrrolidin-1-yl)-7-[[2-(trifluoromethyl)phenyl]methyl]pyrrolo[2,3-d]pyrimidine] | 8.13 | < 5.00 | – |
| CC(C)(C)c1nc(N2CCC(F)(F)C2)c2ccn(Cc3cccc(Cl)c3Cl)c2n1 [Example 5, 2-tert-butyl-7-[(2,3-dichlorophenyl)methyl]-4-(3,3-difluoropyrrolidin-1-yl) pyrrolo[2,3-d]pyrimidine] | 7.90 | < 5.00 | – |
| CC(C)(C)c1nc(N2CCC(F)(F)C2)c2ccn(Cc3cccnc3Cl)c2n1 [Example 6, 2-tert-butyl-7-[(2-chloropyridin-3-yl)methyl]-4-(3,3-difluoropyrrolidin-1-yl)pyrrolo[2,3-d]pyrimidine] | 7.92 | < 5.00 | – |
| CC(C)(C)c1nc(N2CCC(F)(F)C2)c2ccn(Cc3ncccc3Cl)c2n1 [Example 7, 2-tert-butyl-7-[(3-chloropyridin-2-yl)methyl]-4-(3,3-difluoropyrrolidin-1-yl)pyrrolo[2,3-d]pyrimidine] | 8.38 | < 5.00 | – |
| Cc1noc(Cn2ccc3c(N4CCC(F)(F)C4)nc(C(C)(C)C)nc32)n1 [Example 8, 5-[[2-tert-butyl-4-(3,3-difluoropyrrolidin-1-yl)pyrrolo[2,3-d]pyrimidin-7-yl]methyl]-3-methyl-1,2,4-oxadiazole] | 7.30 | < 5.00 | – |
| Cc1nonc1Cn1ccc2c(N3CCC(F)(F)C3)nc(C(C)(C)C)nc21 [Example 9, 3-[[2-tert-butyl-4-(3,3-difluoropyrrolidin-1-yl)pyrrolo[2,3-d]pyrimidin-7-yl]methyl]-4-methyl-1,2,5-oxadiazole] | 8.02 | < 5.00 | – |
| Cc1nnc(Cn2ccc3c(N4CCC(F)(F)C4)nc(C(C)(C)C)nc32)o1 [Example 10, 2-[[2-tert-butyl-4-(3,3-difluoropyrrolidin-1-yl)pyrrolo[2,3-d]pyrimidin-7-yl]methyl]-5-methyl-1,3,4-oxadiazole] | 7.53 | < 5.00 | – |
| Cc1nnc(Cn2ccc3c(N4CCC(F)(F)C4)nc(C(C)(C)C)nc32)n1C [Example 11, 2-tert-butyl-4-(3,3-difluoropyrrolidin-1-yl)-7-[(4,5-dimethyl-1,2,4-triazol-3-yl)methyl]pyrrolo[2,3-d]pyrimidine] | 7.51 | < 5.00 | – |
| Cn1nnnc1Cn1ccc2c(N3CCC(F)(F)C3)nc(C(C)(C)C)nc21 [Example 12, 2-tert-butyl-4-(3,3-difluoropyrrolidin-1-yl)-7-[(1-methyltetrazol-5-yl)methyl]pyrrolo[2,3-d]pyrimidine] | 7.85 | < 5.00 | – |
| CC(C)(C)c1nc(N2CCC(F)(F)C2)c2ccn(Cc3nnnn3C3CC3)c2n1 [Example 13, 2-tert-butyl-7-[(1-cyclopropyltetrazol-5-yl)methyl]-4-(3,3-difluoropyrrolidin-1-yl)pyrrolo[2,3-d]pyrimidine] | 7.64 | < 5.00 | – |
| CC(C)(C)c1nc(N2CC3(COC3)C2)c2ccn(Cc3ccccc3Cl)c2n1 [Example 14, 6-[2-tert-butyl-7-[(2-chlorophenyl)methyl]pyrrolo[2,3-d]pyrimidin-4-yl]-2-oxa-6-azaspiro[3.3]heptane] | 7.82 | < 5.00 | – |
| Cc1noc(Cn2ccc3c(N4CC5(COC5)C4)nc(C(C)(C)C)nc32)n1 [Example 15, 6-[2-tert-butyl-7-[(3-methyl-1,2,4-oxadiazol-5-yl)methyl]pyrrolo[2,3-d]pyrimidin-4-yl]-2-oxa-6-azaspiro[3.3]heptane] | – | < 5.00 | 6.13 |
| CC(C)(C)c1nc(N2CC3(COC3)C2)c2ccn([C@H]3CCOC3)c2n1 [Example 16, 6-[2-tert-butyl-7-[(3S)-oxolan-3-yl]pyrrolo[2,3-d]pyrimidin-4-yl]-2-oxa-6-azaspiro[3.3]heptane] | 7.10 | < 5.00 | – |
| CC(C)(C)c1nc(N2CC3(COC3)C2)c2ccn([C@@H]3CCOC3)c2n1 [Example 17, 6-[2-tert-butyl-7-[(3R)-oxolan-3-yl]pyrrolo[2,3-d]pyrimidin-4-yl]-2-oxa-6-azaspiro[3.3]heptane] | 7.21 | < 5.00 | – |
| CC(C)(C)c1nc(N2CC3(COC3)C2)c2ccn(Cc3ccc(F)cc3Cl)c2n1 [Example 18, 6-[2-tert-butyl-7-[(2-chloro-4-fluorophenyl)methyl]pyrrolo[2,3-d]pyrimidin-4-yl]-2-oxa-6-azaspiro[3.3]heptane] | 7.37 | < 5.00 | – |
| CC(C)(C)c1nc(N2CC3(COC3)C2)c2ccn(Cc3ccccc3S(C)(=O)=O)c2n1 [Example 19, 6-[2-tert-butyl-7-[(2-methylsulfonylphenyl)methyl]pyrrolo[2,3-d]pyrimidin-4-yl]-2-oxa-6-azaspiro[3.3]heptane] | 7.84 | < 5.00 | – |
| CC(C)(C)c1nc(N2CC3(COC3)C2)c2ccn(Cc3cccnc3Cl)c2n1 [Example 20, 6-[2-tert-butyl-7-[(2-chloropyridin-3-yl)methyl]pyrrolo[2,3-d]pyrimidin-4-yl]-2-oxa-6-azaspiro[3.3]heptane] | 7.62 | < 5.00 | – |
| CC(C)(C)c1nc(N2CC3(COC3)C2)c2ccn(Cc3cccc(Cl)c3Cl)c2n1 [Example 21, 6-[2-tert-butyl-7-[(2,3-dichlorophenyl)methyl]pyrrolo[2,3-d]pyrimidin-4-yl]-2-oxa-6-azaspiro[3.3]heptane] | 7.04 | < 5.00 | – |
| Cc1nonc1Cn1ccc2c(N3CC4(COC4)C3)nc(C(C)(C)C)nc21 [Example 22, 6-[2-tert-butyl-7-[(4-methyl-1,2,5-oxadiazol-3-yl)methyl]pyrrolo[2,3-d]pyrimidin-4-yl]-2-oxa-6-azaspiro[3.3]heptane] | 7.32 | < 5.00 | – |
| Cc1nnc(Cn2ccc3c(N4CC5(COC5)C4)nc(C(C)(C)C)nc32)o1 [Example 23, 6-[2-tert-butyl-7-[(5-methyl-1,3,4-oxadiazol-2-yl)methyl]pyrrolo[2,3-d]pyrimidin-4-yl]-2-oxa-6-azaspiro[3.3]heptane] | – | < 5.00 | 6.33 |
| CC(C)(C)c1nc(N2CCC(O)C2)c2ccn(Cc3ccccc3Cl)c2n1 (stereo not shown) [Example 24, 1-[2-tert-butyl-7-[(2-chlorophenyl)methyl]pyrrolo[2,3-d]pyrimidin-4-yl]pyrrolidin-3-ol] | – | < 5.00 | 6.39 |
| CC(C)(C)c1nc(N2CCC(O)C2)c2ccn(Cc3ccc(F)cc3Cl)c2n1 (stereo not shown) [Example 25, 1-[2-tert-butyl-7-[(2-chloro-4-fluorophenyl)methyl]pyrrolo[2,3-d]pyrimidin-4-yl]pyrrolidin-3-ol] | 7.99 | 6.05 | – |
| CC(C)(C)c1nc(N2CCC(O)C2)c2ccn(Cc3ccccc3S(C)(=O)=O)c2n1 (stereo not shown) [Example 26, 1-[2-tert-butyl-7-[(2-methylsulfonylphenyl)methyl]pyrrolo[2,3-d]pyrimidin-4-yl]pyrrolidin-3-ol] | 7.77 | < 5.00 | – |
| CC(C)(C)c1nc(N2CCC(O)C2)c2ccn(Cc3ccccc3C(F)(F)F)c2n1 (stereo not shown) [Example 27, 1-[2-tert-butyl-7-[[2-(trifluoromethyl)phenyl]methyl]pyrrolo[2,3-d]pyrimidin-4-yl]pyrrolidin-3-ol] | 8.16 | < 5.00 | – |
| CC(C)(C)c1nc(N2CCC(O)C2)c2ccn(Cc3cccc(Cl)c3Cl)c2n1 (stereo not shown) [Example 28, 1-[2-tert-butyl-7-[(2,3-dichlorophenyl)methyl]pyrrolo[2,3-d]pyrimidin-4-yl]pyrrolidin-3-ol] | 7.85 | < 5.00 | – |
| CC(C)(C)c1nc(N2CCC(O)C2)c2ccn(Cc3cccnc3Cl)c2n1 (stereo not shown) [Example 29, 1-[2-tert-butyl-7-[(2-chloropyridin-3-yl)methyl]pyrrolo[2,3-d]pyrimidin-4-yl]pyrrolidin-3-ol] | 8.44 | < 5.00 | – |
